Patent US10640457B2, “Histone acetyltransferase activators and uses thereof” (The Trustees of Columbia University in the City of New York, priority 2009, dated 2020)
Several values for one entry are separate records, joined by “and”; a condition that tells them apart may be missing. Equal entries are not always repeated. Entries after “also recorded” stand apart in the source; their conditions may differ.

Columns and labels:
[1] = tested on: hippocampal slices from APP/PS1 mice; test: CA1 LTP in hippocampal slices of APP/PS1 and WT mice (TSA)
Experimental: At this age the Tg mice just start showing the synaptic plasticity and memory impairments [A29] (herein incorporated by reference in its entirety). Basal synaptic transmission (BST) was similar between APP/PS1 and WT mice. We found no difference in BST among the 2 groups as previously shown in mice of this age [A29] (herein incorporated by reference in its entirety). Hippocampal slices were then perfused with TSA (1.65 μM) for 30 min before inducing LTP through tetanic stimulation of the Schaeffer collateral pathway. Potentiation in TSA treated APP/P S1 slices was far greater than in vehicle-treated APP/PS1 slices (FIG. 17). […] The observation that inspired these studies was the result of a series of experiments in which we tested whether a brief application of the HDAC inhibitor TSA was capable of rescuing the defect in LTP shown by slices from 3-4 month-old APP/PS1 mice (for a detailed description of the experiments showing the characterization of these mice [B50]; herein incorporated by reference in its entirety). At this age the transgenic mice just start showing the synaptic plasticity and memory impairments [B14, B50] (each herein incorporated by reference in its entirety)). […] (each herein incorporated by reference in its entirety), basal synaptic transmission (BST) was similar between APP/PS1 and WT mice. Hippocampal slices were then perfused with TSA (1.65 nM) for 30 min before inducing LTP through tetanic stimulation of the Schaeffer collateral pathway. Potentiation in TSA treated APP/PS1 slices was far greater than in vehicle-treated APP/PS1 slices (two-way ANOVA: F1,11=13.166, p=0.004; FIG. 17). […] Thus, HDAC inhibition is capable of rescuing the defect in LTP in the APP/PS1 animal model of Aβ deposition.

acetylated H4 = test: Western blot of hippocampal acetylated H4 after fear conditioning (TSA); format: in vivo, mice
Experimental: We will also test if defects seen in APP/PS1 mice, compared to WT littermates, are due to epigenetic effects. […] (each herein incorporated by reference in its entirety). Acetylation of H4 in hippocampus from WT and APP/PS1 animals was measured. Vehicle control solution was administered i.p. 2 hrs before FC training. 1 hr after contextual FC, the APP/PS1 and WT mice were euthanized and hippocampi were extracted. […] Whether HDAC inhibition might rescue the histone 4 acetylation levels defect observed in APP/PS1 mice was also tested. Injection of TSA (2 μg/g body weight; i.p) 2 hours prior to contextual fear conditioning enhanced H4 acetylation of APP/PS1 mice (FIG. 22). Without being bound by theory, AD is likely to be a disease with an epigenetic motif and HDAC inhibitors can elevate decreased levels of histone 4 in an AD mouse model.
APP/PS1 mice display a reduced endogenous level of histone 4 acetylation in response to a learning task. Given that HDAC inhibitors are known to acetylate other molecules besides histones [B49] […] We measured acetylation of H4 in hippocampus from 3 to 4 month old wild-type (WT) and APP/PS1 animals, after training for fear conditioning. […]

HDAC5FL = HDAC5FL (Homo sapiens, UniProt Q9UQL6); test: HDAC5FL fluorogenic activity assay; details: Repeat1/Repeat2, listed as OA2
Sirtuin 1 = target: T1, Sirtuin 1 (Homo sapiens, UniProt Q96EB6); test: Sirtuin 1 fluorogenic activity assay; details: for % Activity: Repeat1/Repeat2, listed as OA2
T1 sequence (Q96EB6 1-747): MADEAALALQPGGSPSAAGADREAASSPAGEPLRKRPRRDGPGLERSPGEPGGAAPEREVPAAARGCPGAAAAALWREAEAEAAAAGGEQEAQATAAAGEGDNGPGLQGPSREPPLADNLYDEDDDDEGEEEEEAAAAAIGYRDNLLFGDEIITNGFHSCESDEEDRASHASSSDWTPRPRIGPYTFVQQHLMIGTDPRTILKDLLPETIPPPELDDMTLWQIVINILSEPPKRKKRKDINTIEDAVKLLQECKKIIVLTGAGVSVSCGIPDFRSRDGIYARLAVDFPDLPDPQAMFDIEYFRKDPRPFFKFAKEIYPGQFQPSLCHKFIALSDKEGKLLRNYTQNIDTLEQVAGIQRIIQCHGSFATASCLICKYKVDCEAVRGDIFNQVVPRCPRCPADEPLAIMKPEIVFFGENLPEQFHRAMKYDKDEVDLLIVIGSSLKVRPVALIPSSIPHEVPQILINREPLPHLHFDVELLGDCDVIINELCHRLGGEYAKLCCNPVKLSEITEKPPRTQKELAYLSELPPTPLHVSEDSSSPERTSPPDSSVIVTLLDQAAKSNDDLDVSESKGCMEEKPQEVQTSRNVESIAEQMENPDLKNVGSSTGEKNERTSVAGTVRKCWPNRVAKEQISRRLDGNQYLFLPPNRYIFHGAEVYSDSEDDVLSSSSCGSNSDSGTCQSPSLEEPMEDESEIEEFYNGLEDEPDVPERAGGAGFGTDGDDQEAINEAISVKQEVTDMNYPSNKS

HDAC5FL, sequence (Q9UQL6 whole entry): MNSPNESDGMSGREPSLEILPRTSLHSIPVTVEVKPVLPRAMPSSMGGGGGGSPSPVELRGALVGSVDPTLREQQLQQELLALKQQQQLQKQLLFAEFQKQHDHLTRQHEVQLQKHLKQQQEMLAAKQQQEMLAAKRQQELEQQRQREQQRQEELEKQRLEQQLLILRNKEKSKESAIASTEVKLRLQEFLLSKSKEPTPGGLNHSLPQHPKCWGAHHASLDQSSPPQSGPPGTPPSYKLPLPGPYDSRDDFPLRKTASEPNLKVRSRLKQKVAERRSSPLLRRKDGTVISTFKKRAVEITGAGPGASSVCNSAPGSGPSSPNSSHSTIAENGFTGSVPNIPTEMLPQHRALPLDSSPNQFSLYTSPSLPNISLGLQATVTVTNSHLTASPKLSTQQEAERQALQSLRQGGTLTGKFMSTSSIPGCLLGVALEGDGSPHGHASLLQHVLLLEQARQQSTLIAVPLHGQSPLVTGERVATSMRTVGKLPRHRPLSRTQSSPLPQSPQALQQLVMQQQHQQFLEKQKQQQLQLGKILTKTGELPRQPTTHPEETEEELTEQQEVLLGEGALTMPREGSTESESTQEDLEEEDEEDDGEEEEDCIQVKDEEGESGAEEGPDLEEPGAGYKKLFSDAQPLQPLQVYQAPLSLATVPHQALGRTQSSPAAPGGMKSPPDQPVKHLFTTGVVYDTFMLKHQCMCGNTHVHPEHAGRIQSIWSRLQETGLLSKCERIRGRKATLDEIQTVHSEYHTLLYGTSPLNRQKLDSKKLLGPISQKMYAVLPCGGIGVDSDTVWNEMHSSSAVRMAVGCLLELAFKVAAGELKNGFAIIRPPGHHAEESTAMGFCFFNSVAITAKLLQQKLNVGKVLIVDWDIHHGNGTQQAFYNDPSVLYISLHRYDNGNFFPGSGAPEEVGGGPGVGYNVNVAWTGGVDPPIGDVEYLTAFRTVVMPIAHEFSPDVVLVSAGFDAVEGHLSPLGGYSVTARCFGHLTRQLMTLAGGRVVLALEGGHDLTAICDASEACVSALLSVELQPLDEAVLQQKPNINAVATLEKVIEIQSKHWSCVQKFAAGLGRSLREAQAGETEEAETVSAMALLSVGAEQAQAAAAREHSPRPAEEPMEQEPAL

CC(/C=C/C(=O)NO)=C\[C@@H](C)C(=O)c1ccc(N(C)C)cc1 [TSA, trichostatin A]
baseline transmission ([1]; APP/PS1 and WT slices that received no tetanus): did not affect | amplitude of LTP in WT slices ([1]; WT slices, TSA perfused 30 min): did not change; also recorded: no effect | potentiation (LTP) vs vehicle-treated APP/PS1 slices ([1]; slices of 3-4 month-old APP/PS1 mice, TSA perfused 30 min before tetanus): far greater; also recorded: reverses | H4 acetylation in hippocampus of APP/PS1 mice (acetylated H4; TSA 2 mg/kg i.p. 2 hours prior to fear conditioning, 1 hour after training): enhanced; also recorded: rescued; also recorded: enhancement | H4 acetylation levels in WT mice (acetylated H4; TSA 2 mg/kg i.p., vs vehicle-treated WT): increased

CCOc1cccc(OCCN(C)C)c1C(=O)Nc1ccc(Cl)c(C(F)(F)F)c1 [YF2]
% Activity (HDAC5FL; OA2 Log[nM] 0.5): 99.80% and 92.90% | % Activity (HDAC5FL; OA2 Log[nM] 1.0): 102.59% and 97.50% | % Activity (HDAC5FL; OA2 Log[nM] 1.5): 103.20% and 104.10% | % Activity (HDAC5FL; OA2 Log[nM] 2.0): 108.64% and 106.80% | % Activity (HDAC5FL; OA2 Log[nM] 2.5): 108.60% and 107.17% | % Activity (HDAC5FL; OA2 Log[nM] 3.0): 105.76% and 99.80% | % Activity (HDAC5FL; OA2 Log[nM] 3.5): 101.30% and 99.30% | % Activity (HDAC5FL; OA2 Log[nM] 4.0): 104.91% and 104.82% | % Activity (HDAC5FL; OA2 Log[nM] 4.5): 95.40% and 94.11% | % Activity (HDAC5FL; OA2 Log[nM] 5.3): 68.63% and 94.13% | IC50 (Sirtuin 1): > 200 µM | % Activity (Sirtuin 1; OA2 Log[nM] 0.5): 94.26% and 99.92% | % Activity (Sirtuin 1; OA2 Log[nM] 1.0): 87.25% and 99.42% | % Activity (Sirtuin 1; OA2 Log[nM] 1.5): 100.27% and 87.48% | % Activity (Sirtuin 1; OA2 Log[nM] 2.0): 97.98% and 92.56% | % Activity (Sirtuin 1; OA2 Log[nM] 2.5): 101.56% and 100.81% | % Activity (Sirtuin 1; OA2 Log[nM] 3.0): 108.86% and 94.87% | % Activity (Sirtuin 1; OA2 Log[nM] 3.5): 96.93% and 100.23% | % Activity (Sirtuin 1; OA2 Log[nM] 4.0): 96.69% and 89.85% | % Activity (Sirtuin 1; OA2 Log[nM] 4.5): 98.83% and 93.79% | % Activity (Sirtuin 1; OA2 Log[nM] 5.3): 99.02% and 100.98%
